Values of other authors as cited in patent US6921530B1, “Low dose IL-2 for potentiation of immunity” (Cornell Research Foundation, Inc., priority 1999, dated 2005).
Where “and” joins values, the source holds several entries; their conditions need not be identical. Identical values can stand only once.

System: HCV
Details: cited from earlier work

Interferon-α [IFN-α]
sustained response, % of patients (3×10^6 units s.c. three times a week over one year, monotherapy): 35% and 28-43% | initial delay before decline of plasma HCV viral load (daily IFN therapy): 9 h
